Data taken from publication PMC8151276, “An Integrated Approach toward NanoBRET Tracers for Analysis of GPCR Ligand Engagement” (Molecules, 2021).
Blank lines part the entries; values can stand above or below the compound they belong to.

Tests used:
Assay type in all cases: binding
FZD5 = molecular target: T1, FZD5 (Homo sapiens, UniProt Q13467); assay: NanoBRET screen HiBiT-FZD5 in HEK293
T1 construct: purchased Promega (in-house HiBiT-GPCR construct library, NanoBRET)
Description: (§1) Each tracer candidate was screened across the entire library of HiBiT-GPCR constructs using NanoBRET as the detection modality. As depicted in Figure 4A, the specificity of interactions was evaluated through decrease in BRET due to competitive displacement of a bound tracer by excess parental compound. Each tracer was analyzed for binding to each HiBiT-GPCR fusion in the absence and in the presence of competing parental compound. Briefly, HEK293 cells were transfected with HiBiT-GPCR constructs diluted into promoterless DNA to reduce expression and maximize translocation to the cell surface. Each tracer candidate was then screened at concentrations of 1 μM and 0.1 μM across cells expressing these fusions. Cells were treated for 1.5 h with tracer either alone or in the presence of 20 μM competing parental compound (i.e., control). BRET was measured upon addition of purified LgBiT and subsequent complementation with HiBiT genetically fused to a GPCR. The specificity of interactions was assessed through a decrease in BRET signal due to competitive displacement of the bound tracer. To further gauge the robustness of these interactions, the fold response over the control (i.e., BRETtracer/BRETcontrol) was calculated. We chose a 1.5-fold response, which translates to ≥7-fold signal over noise as the minimal threshold required to score an interaction as positive. […]. Below we highlight the screening results obtained for our exemplary fluorescent tracers based on Clozapine, Amitriptyline and AZD1283.
(§2) HiBiT-GPCR DNA constructs were diluted in 10 mM Tris pH 8 to a final concentration of 0.01 μg/μL, arrayed in 96-well plates and stored at −20 °C. For transfection, HEK293 cells were suspended in Opti-MEM (without phenol red) supplemented with 2% fetal bovine serum (Seradigm) and 100 units/mL penicillin–streptomycin (Gibco) at a final concentration of 220,000 cells/mL and dispensed into white 96-well plates at 90 μL/well. Subsequent transfections and screens were carried using an Agilent Bravo Automated Liquid Handling Platform. First, the 96-well HiBiT DNA arrays were diluted 25-fold in Opti-MEM (without serum or phenol red) to a final concentration of 0.0004 μg/μL and 20 μL of the diluted DNAs were transferred into new 96-well plates. Next, promoterless carrier DNA (1 μg/μL) was diluted 25-fold (0.04 μg/μL) and then dispensed into the diluted arrays at 20 μL/well. Following brief mixing, Viafect transfection reagent (Promega) diluted 16-fold into Opti-MEM was dispensed into the plates at 40 μL/well. After mixing by pipetting, plates were incubated for 10 min on the pipetting station deck. The DNA-transfection reagent complexes were then added to plates containing cells. To facilitate the screen, 10 μL of DNA-transfection reagent complexes were added in duplicates to the top 4 and bottom 4 rows, resulting in two identical 48-well arrays per plate. Plates with transfected cells were incubated for 18–20 h at 37 °C/5% CO2. A screen of each tracer across the entire library using two different concentrations requires duplicate plates of transfected cells. Depending on the number of tracers being screened, transfections can be scaled up using the same ratios. The next day, for each tracer, four 20× screening solutions in tracer dilution buffer (Promega) were prepared: two duplicates at final concentration of 20 μM and two duplicates at a final concentration of 2 μM. A competing unmodified compound was added to one of each duplicate at a final concentration of 400 μM. The four resulting solutions were diluted 4-fold in Opti-MEM without serum or phenol red to generate 5× solutions (5 µM and 0.5 µM tracer +/− 100 μM competing compound). To screen the library, a BioTek MultiFlo FX liquid dispenser was used to dispense 22.5 µL of tracer solution to the top 4 rows and 22.5 µL tracer + competing compound solution to the 4 bottom rows. Plates were briefly mixed on an orbital shaker and incubated for 1.5 h at room temperature. […]

AGTR1 = molecular target: T2, AGTR1 (Homo sapiens, UniProt P30556); assay: NanoBRET screen HiBiT-AGTR1 in HEK293
T2 construct: purchased Promega (in-house HiBiT-GPCR construct library, NanoBRET)
T2 sequence (P30556 1-359): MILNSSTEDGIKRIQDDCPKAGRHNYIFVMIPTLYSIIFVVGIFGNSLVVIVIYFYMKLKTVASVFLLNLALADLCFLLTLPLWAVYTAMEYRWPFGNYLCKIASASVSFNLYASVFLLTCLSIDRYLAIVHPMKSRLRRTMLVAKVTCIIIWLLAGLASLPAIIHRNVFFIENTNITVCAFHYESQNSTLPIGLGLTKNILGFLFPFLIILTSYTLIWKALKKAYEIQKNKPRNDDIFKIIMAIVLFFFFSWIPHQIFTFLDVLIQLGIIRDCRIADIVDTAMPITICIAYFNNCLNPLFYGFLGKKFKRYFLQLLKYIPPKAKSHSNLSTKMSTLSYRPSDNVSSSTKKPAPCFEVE
Description: as §1, §2

F2R = molecular target: T3, F2R (Homo sapiens, UniProt P25116); assay: NanoBRET screen HiBiT-F2R in HEK293
T3 construct: purchased Promega (in-house HiBiT-GPCR construct library, NanoBRET)
T3 sequence (P25116 22-425): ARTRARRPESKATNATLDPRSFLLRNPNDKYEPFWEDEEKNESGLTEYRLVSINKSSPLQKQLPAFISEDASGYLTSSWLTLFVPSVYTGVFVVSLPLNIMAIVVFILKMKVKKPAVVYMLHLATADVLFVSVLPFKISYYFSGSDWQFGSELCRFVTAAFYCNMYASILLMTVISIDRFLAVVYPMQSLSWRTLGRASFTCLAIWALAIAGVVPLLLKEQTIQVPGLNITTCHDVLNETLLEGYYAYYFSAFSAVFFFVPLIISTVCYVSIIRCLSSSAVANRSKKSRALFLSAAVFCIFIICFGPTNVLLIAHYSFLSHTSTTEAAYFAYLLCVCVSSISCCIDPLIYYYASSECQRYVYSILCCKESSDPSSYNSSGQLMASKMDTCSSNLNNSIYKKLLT
Description: as §1, §2

TACR3 = molecular target: T4, TACR3 (Homo sapiens, UniProt P29371); assay: NanoBRET screen HiBiT-TACR3 in HEK293
T4 construct: purchased Promega (in-house HiBiT-GPCR construct library, NanoBRET)
T4 sequence (P29371 1-465): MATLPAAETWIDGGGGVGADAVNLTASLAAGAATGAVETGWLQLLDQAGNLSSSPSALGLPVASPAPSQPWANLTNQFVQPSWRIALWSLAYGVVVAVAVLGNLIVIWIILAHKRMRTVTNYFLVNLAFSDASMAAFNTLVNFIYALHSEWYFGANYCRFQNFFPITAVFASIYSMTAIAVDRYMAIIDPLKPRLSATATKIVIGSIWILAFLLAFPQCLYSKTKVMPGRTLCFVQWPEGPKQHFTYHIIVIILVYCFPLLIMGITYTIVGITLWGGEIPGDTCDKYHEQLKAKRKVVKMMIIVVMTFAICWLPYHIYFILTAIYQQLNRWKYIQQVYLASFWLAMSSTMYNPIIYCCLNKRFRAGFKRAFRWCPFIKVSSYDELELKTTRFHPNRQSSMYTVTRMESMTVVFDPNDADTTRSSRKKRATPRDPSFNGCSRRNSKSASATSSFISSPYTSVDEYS
Description: as §1, §2

T1 sequence (Q13467 27-585): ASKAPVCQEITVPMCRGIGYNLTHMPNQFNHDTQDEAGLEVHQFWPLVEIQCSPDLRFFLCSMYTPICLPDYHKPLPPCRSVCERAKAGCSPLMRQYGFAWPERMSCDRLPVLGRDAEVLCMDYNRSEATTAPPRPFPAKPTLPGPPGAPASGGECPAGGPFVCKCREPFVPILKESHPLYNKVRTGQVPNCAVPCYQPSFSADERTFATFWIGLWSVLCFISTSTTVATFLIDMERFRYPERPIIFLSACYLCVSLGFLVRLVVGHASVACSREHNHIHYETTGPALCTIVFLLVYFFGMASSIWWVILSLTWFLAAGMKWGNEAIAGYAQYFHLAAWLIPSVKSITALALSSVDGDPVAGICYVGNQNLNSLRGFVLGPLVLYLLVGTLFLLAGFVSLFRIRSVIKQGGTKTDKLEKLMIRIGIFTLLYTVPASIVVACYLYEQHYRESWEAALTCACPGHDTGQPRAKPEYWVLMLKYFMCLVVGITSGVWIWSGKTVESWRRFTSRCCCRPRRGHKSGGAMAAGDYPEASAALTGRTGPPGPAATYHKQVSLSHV

SMILES: Cc1cc2c(s1)Nc1ccccc1N=C2N1CCN(CCCNC(=O)CCOCCOCCOCCOCCNC(=O)CCc2ccc3n2[B-](F)(F)[N+]2=C(c4ccc[nH]4)C=CC2=C3)CC1 [Olanzapine-a-2-NB590]
- NanoBRET Fold Response (FZD5; FZD5, tracer 0.1μM): 1.00
- NanoBRET Fold Response (FZD5; FZD5, tracer 1μM): 1.02
- NanoBRET Fold Response (AGTR1; AGTR1, tracer 0.1μM): 0.94
- NanoBRET Fold Response (AGTR1; AGTR1, tracer 1μM): 0.95
- NanoBRET Fold Response (F2R; F2R, tracer 0.1μM): 1.01
- NanoBRET Fold Response (F2R; F2R, tracer 1μM): 0.90
- NanoBRET Fold Response (TACR3; TACR3, tracer 0.1μM): 1.00
- NanoBRET Fold Response (TACR3; TACR3, tracer 1μM): 0.95

SMILES: CN1CCN(C2=Nc3cc(Cl)ccc3Nc3ccc(CNC(=O)CCOCCOCCOCCOCCNC(=O)CCc4ccc5n4[B-](F)(F)[N+]4=C(c6ccc[nH]6)C=CC4=C5)cc32)CC1 [Clozapine-b-2-NB590]
- NanoBRET Fold Response (FZD5; FZD5, 0.1μM tracer): 1.00
- NanoBRET Fold Response (FZD5; FZD5, 1μM tracer): 1.04
- NanoBRET Fold Response (AGTR1; AGTR1, 0.1μM tracer): 1.01
- NanoBRET Fold Response (AGTR1; AGTR1, 1μM tracer): 1.06
- NanoBRET Fold Response (F2R; F2R, 0.1μM tracer): 1.02
- NanoBRET Fold Response (F2R; F2R, 1μM tracer): 1.01
- NanoBRET Fold Response (TACR3; TACR3, 0.1μM tracer): 1.01
- NanoBRET Fold Response (TACR3; TACR3, 1μM tracer): 1.05

- NanoBRET Fold Response (FZD5; 0.1μM tracer): 0.88
- NanoBRET Fold Response (FZD5; 1μM tracer): 0.88
- NanoBRET Fold Response (AGTR1; 0.1μM tracer): 0.78
- NanoBRET Fold Response (AGTR1; 1μM tracer): 1.07
- NanoBRET Fold Response (F2R; 0.1μM tracer): 0.98
- NanoBRET Fold Response (F2R; 1μM tracer): 0.96
- NanoBRET Fold Response (TACR3; 0.1μM tracer): 1.06
- NanoBRET Fold Response (TACR3; 1μM tracer): 0.87
SMILES: COc1ccc2c(n1)c(CCNC(C)=O)cn2CCNC(=O)CCc1ccc2n1[B-](F)(F)[N+]1=C(c3ccc[nH]3)C=CC1=C2 [Azamelatonin-1-NB590]

SMILES: O=C(CCc1ccc2n1[B-](F)(F)[N+]1=C(c3ccc[nH]3)C=CC1=C2)NCc1ccc(C(=O)NCCOCCOCCNCC(O)COc2cccc3ccccc23)cc1 (stereo not shown) [Propranolol-3-NB590]
- NanoBRET Fold Response (FZD5; FZD5, 0.1μM): 1.07
- NanoBRET Fold Response (FZD5; FZD5, 1μM): 1.02
- NanoBRET Fold Response (AGTR1; AGTR1, 0.1μM): 1.04
- NanoBRET Fold Response (AGTR1; AGTR1, 1μM): 1.07
- NanoBRET Fold Response (F2R; F2R, 0.1μM): 1.04
- NanoBRET Fold Response (F2R; F2R, 1μM): 1.06
- NanoBRET Fold Response (TACR3; TACR3, 0.1μM): 1.06
- NanoBRET Fold Response (TACR3; TACR3, 1μM): 0.99

- NanoBRET Fold Response (FZD5; FZD5, 0.1μM tracer): 1.15
- NanoBRET Fold Response (FZD5; FZD5, 1μM tracer): 0.95
- NanoBRET Fold Response (AGTR1; AGTR1, 0.1μM tracer): 0.96
- NanoBRET Fold Response (AGTR1; AGTR1, 1μM tracer): 1.05
- NanoBRET Fold Response (F2R; F2R, 0.1μM tracer): 1.12
- NanoBRET Fold Response (F2R; F2R, 1μM tracer): 1.05
- NanoBRET Fold Response (TACR3; TACR3, 0.1μM tracer): 0.99
- NanoBRET Fold Response (TACR3; TACR3, 1μM tracer): 1.21
SMILES: O=C(CCOCCOCCOCCOCCNC(=O)CCc1ccc2n1[B-](F)(F)[N+]1=C(c3ccc[nH]3)C=CC1=C2)NCCCN1CCN(C2=Nc3cc(Cl)ccc3Nc3ccccc32)CC1 [Clozapine-a-2-NB590]
